Assays:
Format in all cases: in vivo
Abutilon theophrasti = assay: Test Example 5: herbicidal effect by foliage application, plastic box (symbol M); settings: 320 g/ha, 3 weeks after application
Method in brief: (§1)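 After sowing into sterilized diluvial soil and growing two weeks under glass at 25° C. to 30° C., seedlings receive a uniform foliar spray of diluted emulsion. Damage is judged visually three weeks on.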

soybean = assay: Test Example 5: effect on crop by foliage application, plastic box (symbol d); settings: 320 g/ha, 3 weeks after application
Method in brief: (§2)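 Box culture: sterile diluvial soil, seeds spot-sown, ~1.5 cm cover, raised under glass at 25–30° C.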

beet = assay: Test Example 5: effect on crop by foliage application, plastic box (symbol f); settings: 320 g/ha, 3 weeks after application
Method in brief: as §2

Setaria viridis = assay: Test Example 4: herbicidal effect by soil treatment (symbol G)
Method in brief: (§3)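 Seeds were sown in sterilized diluvial soil, covered with about 1.5 cm of soil, and the soil surface was sprayed with a water-diluted emulsion of the compound at a predetermined rate. Plants grew in a greenhouse at 25° C. to 30° C.; effects were scored visually 3 weeks after application.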

[1] = test system: Echinochloa oryzacola Vasing.; assay: Test Example 2: herbicidal activity, application during weed generation in submerged conditions (symbol A); settings: Table 23; application herbicide amount 320 g/ha; grade 0-5 by criteria of Test Example 1
Method in brief: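 Steps: fill pots with alluvial soil; add water to 4 cm depth; co-sow the three weeds; grow at 25° C. to 30° C. under glass; at 1–2 leaves, dose the floodwater with diluted emulsion; rate damage visually after 3 weeks.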

Galium spurium = assay: Test Example 5: herbicidal effect by foliage application, plastic box (symbol Q); settings: 320 g/ha, 3 weeks after application
Method in brief: as §1

Leptochloa chinensis = assay: Test Example 3: herbicidal effect by foliage application, Wagner pot (symbol D); settings: application herbicide amount 320 g/ha
Method in brief: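 Post-emergence, paddy-type test: seedlings 14 d old in shallow-flooded (0.1–0.5 cm) alluvial soil, 25–30 °C greenhouse. Emulsion diluted to target rate, sprayed on leaves. Read-out: visual effect on each species at 3 weeks, per set criteria.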

Chenopodium album [2] = assay: Test Example 5: herbicidal effect by foliage application, plastic box (symbol O); settings: 320 g/ha, 3 weeks after application
Method in brief: as §1

Digitaria ciliaris = assay: Test Example 4: herbicidal effect by soil treatment (symbol F)
Method in brief: as §3

Monochoria vaginalis = assay: Test Example 1: herbicidal activity, application before weed generation in submerged conditions (symbol C); settings: application herbicide amount 320 g/ha
Method in brief: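 Ratings (5: ≥90%, near complete withering; 4: 70–<90%; 3: 40–<70%; 2: 20–<40%; 1: 5–<20%; 0: ≤5%) were assigned 3 weeks after the diluted emulsion was applied to the water surface of freshly sown, submerged pots.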

Chenopodium album [3] = assay: Test Example 4: herbicidal effect by soil treatment (symbol O)
Method in brief: as §3

Amaranthus retroflexus = assay: Test Example 5: herbicidal effect by foliage application, plastic box (symbol N); settings: 320 g/ha, 3 weeks after application
Method in brief: as §1

rapeseed = assay: Test Example 5: effect on crop by foliage application, plastic box (symbol g); settings: 320 g/ha, 3 weeks after application
Method in brief: as §2

corn = assay: Test Example 5: effect on crop by foliage application, plastic box (symbol c); settings: 320 g/ha, 3 weeks after application
Method in brief: as §2

Apera spica-venti = assay: Test Example 5: herbicidal effect by foliage application, plastic box (symbol L); settings: 320 g/ha, 3 weeks after application
Method in brief: as §1

[4] = application herbicide amount 320 g/ha

Row | SMILES | M: Abutilon theophrasti, herbicidal effect grade (Abutilon theophrasti) | d: soybean, effect on crop grade (soybean) | f: beet, effect on crop grade (beet) | G: Setaria viridis, herbicidal effect grade (Setaria viridis; [4]) | Herbicidal effect grade, A: Echinochloa oryzacola Vasing. [1] | Q: Galium spurium, herbicidal effect grade (Galium spurium) | herbicidal effect on D (Leptochloa chinensis), grade 0-5 (Leptochloa chinensis) | O: Chenopodium album, herbicidal effect grade (Chenopodium album [2]) | F: Digitaria ciliaris, herbicidal effect grade (Digitaria ciliaris; [4]) | Herbicidal effect grade, C: Monochoria vaginalis (Monochoria vaginalis) | O: Chenopodium album, herbicidal effect grade (Chenopodium album [3]; [4]) | N: Amaranthus retroflexus, herbicidal effect grade (Amaranthus retroflexus) | g: rapeseed, effect on crop grade (rapeseed) | c: corn, effect on crop grade (corn) | L: Apera spica-venti, herbicidal effect grade (Apera spica-venti) | G: Setaria viridis, herbicidal effect grade (Setaria viridis; 320 g/ha) | F: Digitaria ciliaris, herbicidal effect grade (Digitaria ciliaris; 320 g/ha) | O: Chenopodium album, herbicidal effect grade (Chenopodium album [3]; 320 g/ha) | M: Abutilon theophrasti, herbicidal effect (criteria 0-5) (Abutilon theophrasti) | d: soybean, effect on crop (criteria 0-5) (soybean) | also measured
1 | CCOC(=O)C(C(=O)c1ccccc1)C1CC(O)=C(c2c(C)cc(C)cc2C)C1=O (stereo not drawn) [2-008] | 0 (Herbicidal ratio of 5% or lower (almost no effect)) | 1 (Herbicidal ratio of 5% or higher and lower than 20%) | 0 (Herbicidal ratio of 5% or lower (almost no effect)) | 0 (Herbicidal ratio of 5% or lower (almost no effect)) | 0 (Herbicidal ratio of 5% or lower (almost no effect)) | 0 (Herbicidal ratio of 5% or lower (almost no effect)) | 0 (Herbicidal ratio of 5% or lower (almost no effect)) | 0 (Herbicidal ratio of 5% or lower (almost no effect)) | 0 (Herbicidal ratio of 5% or lower (almost no effect)) | 0 (Herbicidal ratio of 5% or lower (almost no effect)) | 0 (Herbicidal ratio of 5% or lower (almost no effect)) | 1 (Herbicidal ratio of 5% or higher and lower than 20%) | 3 (Herbicidal ratio of 40% or higher and lower than 70%) | 1 (Herbicidal ratio of 5% or higher and lower than 20%) | 0 (Herbicidal ratio of 5% or lower (almost no effect)) | – | – | – | – | – | –
2 | CON=C(C)CC1CC(OC(=O)c2c(Cl)nn(C)c2Cl)=C(c2c(C)cc(C)cc2C)C1=O (stereo not drawn) [1-160] | 4 (Herbicidal ratio of 70% or higher and lower than 90%) | 2 (Herbicidal ratio of 20% or higher and lower than 40%) | 5 (Herbicidal ratio of 90% or more (almost completely withered)) | – | 5 (Herbicidal ratio of 90% or more (almost completely withered)) | 4 (Herbicidal ratio of 70% or higher and lower than 90%) | 5 (Herbicidal ratio of 90% or more (almost completely withered)) | 2 (Herbicidal ratio of 20% or higher and lower than 40%) | – | 2 (Herbicidal ratio of 20% or higher and lower than 40%) | – | 0 (Herbicidal ratio of 5% or lower (almost no effect)) | 5 (Herbicidal ratio of 90% or more (almost completely withered)) | 4 (Herbicidal ratio of 70% or higher and lower than 90%) | 5 (Herbicidal ratio of 90% or more (almost completely withered)) | 5 (Herbicidal ratio of 90% or more (almost completely withered)) | 5 (Herbicidal ratio of 90% or more (almost completely withered)) | 0 (Herbicidal ratio of 5% or lower (almost no effect)) | – | – | –
3 | CON=C(C)CC1CC(OC(=O)OCc2ccccc2)=C(c2c(C)cc(C)cc2C)C1=O (stereo not drawn) [1-145] | – | – | – | – | 5 (Herbicidal ratio of 90% or more (almost completely withered)) | – | 5 (Herbicidal ratio of 90% or more (almost completely withered)) | – | – | 1 (Herbicidal ratio of 5% or higher and lower than 20%) | – | – | – | – | – | 5 (Herbicidal ratio of 90% or more (almost completely withered)) | 5 (Herbicidal ratio of 90% or more (almost completely withered)) | 0 (Herbicidal ratio of 5% or lower (almost no effect)) | 3 (Herbicidal ratio of 40% or higher and lower than 70%) | 2 (Herbicidal ratio of 20% or higher and lower than 40%) | f: beet, effect on crop (criteria 0-5) (beet): 2 (Herbicidal ratio of 20% or higher and lower than 40%); Q: Galium spurium, herbicidal effect (criteria 0-5) (Galium spurium): 2 (Herbicidal ratio of 20% or higher and lower than 40%); O: Chenopodium album, herbicidal effect (criteria 0-5) (Chenopodium album [2]): 1 (Herbicidal ratio of 5% or higher and lower than 20%); N: Amaranthus retroflexus, herbicidal effect (criteria 0-5) (Amaranthus retroflexus): 0 (Herbicidal ratio of 5% or lower (almost no effect)); g: rapeseed, effect on crop (criteria 0-5) (rapeseed): 4 (Herbicidal ratio of 70% or higher and lower than 90%); c: corn, effect on crop (criteria 0-5) (corn): 5 (Herbicidal ratio of 90% or more (almost completely withered)); L: Apera spica-venti, herbicidal effect (criteria 0-5) (Apera spica-venti): 5 (Herbicidal ratio of 90% or more (almost completely withered))
4 | CON=C(C)CC1CC(OC(=O)N2CCCC2)=C(c2c(C)cc(C)cc2C)C1=O (stereo not drawn) [1-150] | – | – | – | – | 5 (Herbicidal ratio of 90% or more (almost completely withered)) | – | 4 (Herbicidal ratio of 70% or higher and lower than 90%) | – | – | 0 (Herbicidal ratio of 5% or lower (almost no effect)) | – | – | – | – | – | 0 (Herbicidal ratio of 5% or lower (almost no effect)) | 5 (Herbicidal ratio of 90% or more (almost completely withered)) | 0 (Herbicidal ratio of 5% or lower (almost no effect)) | 3 (Herbicidal ratio of 40% or higher and lower than 70%) | 0 (Herbicidal ratio of 5% or lower (almost no effect)) | f: beet, effect on crop (criteria 0-5) (beet): 0 (Herbicidal ratio of 5% or lower (almost no effect)); Q: Galium spurium, herbicidal effect (criteria 0-5) (Galium spurium): 0 (Herbicidal ratio of 5% or lower (almost no effect)); O: Chenopodium album, herbicidal effect (criteria 0-5) (Chenopodium album [2]): 0 (Herbicidal ratio of 5% or lower (almost no effect)); N: Amaranthus retroflexus, herbicidal effect (criteria 0-5) (Amaranthus retroflexus): 0 (Herbicidal ratio of 5% or lower (almost no effect)); g: rapeseed, effect on crop (criteria 0-5) (rapeseed): 4 (Herbicidal ratio of 70% or higher and lower than 90%); c: corn, effect on crop (criteria 0-5) (corn): 4 (Herbicidal ratio of 70% or higher and lower than 90%); L: Apera spica-venti, herbicidal effect (criteria 0-5) (Apera spica-venti): 5 (Herbicidal ratio of 90% or more (almost completely withered))
5 | Cc1cc(C)c(C2=C(O)CC(CC(=O)C3CCCC3)C2=O)c(C)c1 (stereo not drawn) [2-028] | 0 (Herbicidal ratio of 5% or lower (almost no effect)) | 0 (Herbicidal ratio of 5% or lower (almost no effect)) | 0 (Herbicidal ratio of 5% or lower (almost no effect)) | 5 (Herbicidal ratio of 90% or more (almost completely withered)) | 3 (Herbicidal ratio of 40% or higher and lower than 70%) | 0 (Herbicidal ratio of 5% or lower (almost no effect)) | 5 (Herbicidal ratio of 90% or more (almost completely withered)) | 0 (Herbicidal ratio of 5% or lower (almost no effect)) | 4 (Herbicidal ratio of 70% or higher and lower than 90%) | 0 (Herbicidal ratio of 5% or lower (almost no effect)) | 0 (Herbicidal ratio of 5% or lower (almost no effect)) | 0 (Herbicidal ratio of 5% or lower (almost no effect)) | 3 (Herbicidal ratio of 40% or higher and lower than 70%) | 4 (Herbicidal ratio of 70% or higher and lower than 90%) | 1 (Herbicidal ratio of 5% or higher and lower than 20%) | – | – | – | – | – | –
